According to patent US20240269139A1, “COMPOUNDS FOR TARGETED PROTEIN DEGRADATION OF KINASES” (DANA-FARBER CANCER INSTITUTE, INC., priority 2020, published 2024):
Like-named read-outs stand apart in the source and are kept apart here.

Tested on: protein kinases (human kinome)
Assay type: cell-based
Settings: for logFC PDK3: PDK3 (Q15120-2); for Kinase hits: kinases significantly downregulated vs DMSO (fold change cutoff −1.25, P-value<0.01), ≤8 h, 0.1-5 μM degrader, 7 cell lines; for Total no. kinase hits: number of degraded kinases per library compound
[1] = ACAD10 (Q6JQN1-5), experiment wp084

Compound: CC(=O)c1c(C)c2cnc(Nc3ccc(N4CCN(CCOCCOCCOCCNC(=O)COc5cccc6c5C(=O)N(C5CCC(=O)NC5=O)C6=O)CC4)cn3)nc2n(C2CCCC2)c1=O (stereo not shown) [BSJ.03.123]
- logFC [1]: −0.5275
- logFC (GK P32189-3, experiment wp084): −0.4109
- logFC PDK3 (experiment wp084): −0.5908
- logFC PDK3 (Q15120-2) (experiment wp084): −0.5908
- logFC HK1 (protein HK1 (P19367-3), experiment wp084, down): −0.3484

Compound: CN(C)C(=O)c1cc2cnc(Nc3ccc(N4CCN(CCCCNC(=O)COc5cccc6c5C(=O)N(C5CCC(=O)NC5=O)C6=O)CC4)cn3)nc2n1C1CCCC1 (stereo not shown) [BSJ.04.132]
- logFC [1]: −0.7484
- logFC (GK P32189-3, experiment wp084): −0.383
- logFC PDK3 (experiment wp084): −0.7397
- logFC PDK3 (Q15120-2) (experiment wp084): −0.7397

Compound: Cc1ncsc1-c1ccc([C@H](C)NC(=O)[C@@H]2C[C@@H](O)CN2C(=O)[C@@H](NC(=O)CCCCCN2CCc3cc(Nc4ncc(C5CC5)c(NCCCNC(=O)C5CCC5)n4)ccc3C2)C(C)(C)C)cc1 [BSJ.05.026]
- logFC (MARK3 (P27448-5), experiment wp195): −0.8242
- logFC MARK3 (P27448-5) (experiment wp195, direction of change down): −0.8242

Compound: CC(C)(C)c1nc(-c2cccc(NS(=O)(=O)c3c(F)cccc3F)c2F)c(-c2ccnc(NCCOCCNC(=O)CCOCCOCCNc3cccc4c3CN(C3CCC(=O)NC3=O)C4=O)n2)s1 (stereo not shown) [DD.03.107]
- logFC (ACAD10 (Q6JQN1-5), experiment wp147, 1 uM): −0.5536
- logFC (ACAD10 (Q6JQN1-5), experiment wp147, 2 uM): −0.5234
- logFC (ACAD10 (Q6JQN1-5), experiment wp147, 4 uM): −1.061
- logFC (GK P32189-3, experiment wp147, 1 uM): −0.4979
- logFC (GK P32189-3, experiment wp147, 2 uM): −0.4324
- logFC (GK P32189-3, experiment wp147, 4 uM): −0.7592
- logFC PDK3 (experiment wp147, 1 uM): −0.5119
- logFC PDK3 (experiment wp147, 2 uM): −0.5406
- logFC PDK3 (experiment wp147, 4 uM): −1.004
- logFC PDK3 (Q15120-2) (experiment wp147, 1 uM): −0.5119
- logFC PDK3 (Q15120-2) (experiment wp147, 2 uM): −0.5406
- logFC PDK3 (Q15120-2) (experiment wp147, 4 uM): −1.004

Compound: O=C(COc1cccc2c1C(=O)N(C1CCC(=O)NC1=O)C2=O)NCCCCCCCC(=O)NC1(c2ccc(-c3nc4ccn5c(=O)[nH]nc5c4cc3-c3ccccc3)cc2)CCC1 (stereo not shown) [INY.01.140.1]
- logFC PDK3 (experiment wp081): −0.3755
- logFC PDK3 (Q15120-2) (experiment wp081): −0.3755

Compound: Cc1ccc(C(=O)Nc2ccc(CN3CCN(CCCOCCOCCOCCNC(=O)COc4cccc5c4C(=O)N(C4CCC(=O)NC4=O)C5=O)CC3)c(C(F)(F)F)c2)cc1C#Cc1cnc2cccnn12 (stereo not shown) [SB1-G-187, N-(4-((4-(1-((2-(2,6-dioxopiperidin-3-yl)-1,3-dioxoisoindolin-4-yl)oxy)-2-oxo-6,9,12-trioxa-3-azapentadecan-15-yl)piperazin-1-yl)methyl)-3 (trifluoromethyl)phenyl)-3-(imidazo[1,2-b]pyridazin-3-ylethynyl)-4-methylbenzamide]
- kinases the bifunctional compound degrades (as stated for the structure in the embodiments): ABL1, ABL2, BLK, CDK14, CDK17, CDK5. CDK6, COQ8A, EPHA1, EPHA2, FER, FYN, GAK, IRAK1, LCK, LYN, MAP3K1, MAP3K20, MAP3K7, MAP4K2, MAP4K5, MAPK14, PDK1, PDK2, PDK3, RIPK1, RIPK2, SRC, STK10, TAOK3, and YES1
- Kinase hits: ABL1, ABL2, BLK, CDK14, CDK17, CDK5, CDK6, COQ8A, EPHA1, EPHA2, FER, FYN, GAK, IRAK1, LCK, LYN, MAP3K1, MAP3K20, MAP3K7, MAP4K2, MAP4K5, MAPK14, PDK1, PDK2, PDK3, RIPK1, RIPK2, SRC, STK10, TAOK3, YES1,
- Total no. kinase hits: 31

Compound: CC(C)S(=O)(=O)c1ccccc1Nc1nc(Nc2ccc(N3CCN(CCOCCNC(=O)CNc4cccc5c4C(=O)N(C4CCC(=O)NC4=O)C5=O)CC3)cc2)ncc1Cl (stereo not shown) [SK-3-91]
- targets with significantly different degrader efficacy in the different cell lines with no obvious difference in protein expression (MOLT-4, KELLY, HEK293T): SIK2, LIMK1, FAK
- Kinase hits: AAK1, ABL1, ABL2, AKT2, AKT3, AURKA, AURKB, BCKDK, BLK, BMP2K, BMPR1A, BUB1, BUB1B, CDC7, CDK10, CDK12, CDK13, CDK14, CDK16, CDK17, CDK18, CDK2, CDK4, CDK5, CDK6, CDK7, CDK9, CO18A, CSK, CSNK1D, EPHB2, EPHB4, FER, FYN, GAK HIPK1, ITK, LATS1,
- Total no. kinase hits: 89

Compound: C=CCn1c(=O)c2cnc(Nc3ccc(N4CCN(CCCNc5cccc6c5C(=O)N(C5CCC(=O)NC5=O)C6=O)CC4)cc3)nc2n1-c1cccc(C(C)(C)O)n1 (stereo not shown) [ZNL.02.096]
- logFC (GK P32189-3, experiment wp056): −0.3867
- logFC PDK3 (experiment wp056): −0.3528
- logFC PDK3 (Q15120-2) (experiment wp056): −0.3528
